Test results taken from US9624164B2, “Phenyl carbamate compounds for use in preventing or treating epilepsy” (Bio-Pharm Solutions Co., Ltd., priority 2011, dated 2017).
Where two headings read alike, the source gives them in different places.

Legend:
Format in all cases: in vivo
male ICR mice [1] = experiment: scPTZ test (subcutaneous pentylenetetrazol-induced clonic seizure), intraperitoneal administration, mice; conditions: ip
Method: (§1) After Peak time (0.5, 1, 2 and 4 hr) from the administration, PTZ (Pentylenetetrazol) was administered subcutaneously in the concentration capable of inducing 97% intermittent convulsions (mice: 100˜110 mg/kg·bw, 100 ul/g, or rats: 90˜110 mg/kg·bw, 20 ul/g). If clonic seizure was not observed for at least 3 seconds in the PTZ administered animal, it can be considered that the test compound has anti-epilepsy activity.

male ICR mice [2] = experiment: MES test (maximal electroshock, corneal electrodes), oral administration, mice
male SD rats [3] = experiment: MES test (maximal electroshock, corneal electrodes), oral administration, rats
male SD rats [4] = experiment: scPTZ test (subcutaneous pentylenetetrazol-induced clonic seizure), intraperitoneal administration, rats; conditions: ip; for ED50: Rat, read-out: Duration of scPTZ test ED50
Method: as §1

mice = experiment: Measurement of neurotoxicity (rotarod, Dunham and Miya); conditions: protective index
Method: The measurement of neurotoxicity of the test compounds was conducted by the method of Dunham and Miya [Dunham, N. W. and Miya, T. S. 1957. A note on a simple apparatus for detecting neurological deficit in rats and mice. J. Am. Pharm. Assoc. (Baltimore) 46: 208-209]. In the method, motor abilities of the test animals can be determined by observing whether the test animals can walk without falling from a rotator, thereby determining the value of neurotoxicity of each compound. […] They were pre-trained on the rotarod (Rotarod; Columbus instrument, rota-max, USA) at 6 rpm for 5 min 24 hr prior to the test. The peak time was determined by administration test material's random dose for 0.5, 1, 2, 4 hour. […] The ratio of TD50 to ED50 (TD50/ED50) is called as a protective index, and useful as a parameter for comparison of pharmaceutical efficacy and neurotoxicity.

male ICR mice [5] = experiment: scPTZ test (subcutaneous pentylenetetrazol-induced clonic seizure), intraperitoneal administration, mice; conditions: Mouse, ip, read-out: Duration of scPTZ test ED50
[6] = Mus musculus, mice, at peak time, read-out: ScPTZ test(ip) ED50

CC[C@H](OC(N)=O)[C@@H](O)c1ccc(Cl)cc1Cl [Compound 39, 1-(2,4-dichlorophenyl)-(S)-1-hydroxybutyl-(S)-2-carbamate]
ED50 (male ICR mice [1]; [6]): 24.3 mg/kg

C[C@H](OC(N)=O)[C@@H](O)c1ccccc1Cl [Compound 1, 1-(2-chlorophenyl)-(S)-1-hydroxypropyl-(S)-2-carbamate]
efficacy duration time (male ICR mice [2]; MES test, mice): at least 12 hours
efficacy duration time (male SD rats [3]): at least 12 hours
ED50 (male ICR mice [1]; Mouse, 0.5 h, read-out: Duration of scPTZ test ED50): 17.3 mg/kg
ED50 (male ICR mice [1]; Mouse, 1 h, read-out: Duration of scPTZ test ED50): 16.9 mg/kg
ED50 (male ICR mice [1]; Mouse, 2 h, read-out: Duration of scPTZ test ED50): 15.8 mg/kg
ED50 (male ICR mice [1]; Mouse, 4 h, read-out: Duration of scPTZ test ED50): 27.4 mg/kg
ED50 (male ICR mice [1]; [6]): 15.8 mg/kg
efficacy duration time (male ICR mice [1]; scPTZ test, mice): at least 12 hours
ED50 (male SD rats [4]; 0.5 h): 18.9 mg/kg
ED50 (male SD rats [4]; 1 h): 14.5 mg/kg
ED50 (male SD rats [4]; 2 h): 21 mg/kg
ED50 (male SD rats [4]; 4 h): 31 mg/kg
ED50 (male SD rats [4]; 8 h): 41.3 mg/kg
ED50 (male SD rats [4]; 12 h): 76.7 mg/kg
efficacy duration time (male SD rats [4]; scPTZ test, rats): at least 12 hours
PI (TD50/ED50 in MES) (mice): 16.8
ED50 (male ICR mice [5]; 6 h): 52.2 mg/kg
ED50 (male ICR mice [5]; 8 h): 80.7 mg/kg
ED50 (male ICR mice [5]; 12 h): 201 mg/kg

C[C@H](OC(N)=O)[C@@H](O)c1c(Cl)cccc1Cl [Compound 37, 1-(2,6-dichlorophenyl)-(S)-1-hydroxypropyl-(S)-2-carbamate]
ED50 (male ICR mice [1]; [6]): 25.7 mg/kg
PI (TD50/ED50 in MES) (mice): 5.1

CC(OC(N)=O)C(O)c1ccccc1Cl (racemic) [Compound 3, 1-(2-chlorophenyl)-1-hydroxypropyl-2-carbamate]
ED50 (male ICR mice [1]; [6]): 15.3 mg/kg
PI (TD50/ED50 in MES) (mice): 12.0

C[C@H](OC(N)=O)[C@H](O)c1ccccc1Cl [Compound 5, 1-(2-chlorophenyl)-(R)-1-hydroxypropyl-(S)-2-carbamate]
ED50 (male ICR mice [1]; [6]): 15 mg/kg
PI (TD50/ED50 in MES) (mice): 3.3

CCCCC(OC(N)=O)C(O)c1ccccc1Cl (racemic) [Compound 14, 1-(2-chlorophenyl)-1-hydroxyhexyl-2-carbamate]
responders at 200 mg/kg (male ICR mice [2]; Mus musculus, injection amount 200 mg/kg, 4 mice, read-out: MES test(po) Protection %): 100%

C[C@@H](OC(N)=O)[C@H](O)c1ccccc1Cl [Compound 2, 1-(2-chlorophenyl)-(R)-1-hydroxypropyl-(R)-2-carbamate]
ED50 (male ICR mice [1]; [6]): 38.8 mg/kg
PI (TD50/ED50 in MES) (mice): 7.3

CCC(OC(N)=O)C(O)c1ccccc1Cl (racemic) [Compound 8, 1-(2-chlorophenyl)-1-hydroxybutyl-2-carbamate]
responders at 100 mg/kg (male ICR mice [2]; Mus musculus, injection amount 100 mg/kg, 4 mice, read-out: MES test(po) Protection %): 100%

CC[C@H](OC(N)=O)[C@@H](O)c1ccccc1Cl [Compound 6, 1-(2-chlorophenyl)-(S)-1-hydroxybutyl-(S)-2-carbamate]
ED50 (male ICR mice [1]; [6]): 17.9 mg/kg

C[C@H](OC(N)=O)[C@@H](O)c1ccccc1F [Compound 63, 1-(2-fluorophenyl)-(S)-1-hydroxypropyl-(S)-2-carbamate]
responders at 50 mg/kg (male ICR mice [2]; Mus musculus, injection amount 50 mg/kg, 4 mice, read-out: MES test(po) Protection %): 100%
